# Measurements from publication PMC6563694 (Angewandte Chemie (International Ed. in English), 2019).
# Target: mouse H3R (Mus musculus, UniProt P58406)
# Assay: receptor binding
# Details: PSS cis
# mouse H3R, sequence (P58406 whole entry): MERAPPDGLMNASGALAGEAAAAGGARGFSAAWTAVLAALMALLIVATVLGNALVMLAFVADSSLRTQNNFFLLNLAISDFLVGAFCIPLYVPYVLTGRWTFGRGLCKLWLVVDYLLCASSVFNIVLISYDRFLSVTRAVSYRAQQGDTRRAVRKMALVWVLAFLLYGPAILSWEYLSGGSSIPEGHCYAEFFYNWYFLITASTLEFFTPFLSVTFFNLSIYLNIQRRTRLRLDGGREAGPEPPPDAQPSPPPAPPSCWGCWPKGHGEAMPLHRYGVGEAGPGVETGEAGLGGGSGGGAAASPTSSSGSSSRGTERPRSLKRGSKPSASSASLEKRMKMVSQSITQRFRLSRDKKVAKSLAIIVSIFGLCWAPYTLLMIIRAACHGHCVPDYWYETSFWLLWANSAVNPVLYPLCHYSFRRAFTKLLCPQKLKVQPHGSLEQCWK
row,Structure (SMILES),pKi
1,"c1ccc(/N=N\c2cccc(Cc3c[nH]cn3)c2)cc1 [compound 65, cis-65 (PSS cis)]",high nM (trans) to low μM (PSS cis) binding affinities for both mouse and rat

# Same assay, conditions: trans
row,Structure (SMILES),pKi
1,"c1ccc(/N=N/c2cccc(Cc3c[nH]cn3)c2)cc1 [compound 65, trans-65]",high nM (trans) to low μM (PSS cis) binding affinities for both mouse and rat

# Target: human histamine H3 receptor (hH3R) (Homo sapiens, UniProt Q9Y5N1)
# Sequence (Q9Y5N1 whole entry): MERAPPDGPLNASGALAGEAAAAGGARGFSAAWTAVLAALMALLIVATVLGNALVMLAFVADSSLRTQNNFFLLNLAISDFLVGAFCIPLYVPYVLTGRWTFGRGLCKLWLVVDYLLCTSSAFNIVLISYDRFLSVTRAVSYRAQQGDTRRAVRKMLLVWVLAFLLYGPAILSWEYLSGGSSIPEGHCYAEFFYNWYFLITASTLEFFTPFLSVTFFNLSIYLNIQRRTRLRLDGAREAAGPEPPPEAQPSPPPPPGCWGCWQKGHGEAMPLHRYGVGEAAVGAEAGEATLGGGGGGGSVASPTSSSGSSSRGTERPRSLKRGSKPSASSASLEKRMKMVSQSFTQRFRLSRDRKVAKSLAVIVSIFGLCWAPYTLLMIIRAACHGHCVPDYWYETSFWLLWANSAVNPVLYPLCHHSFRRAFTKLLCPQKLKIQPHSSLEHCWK
# Assay: [3H]-Nα-methylhistamine competition binding
# Details: not given
row,Structure (SMILES),Ki [nM]
1,"Cc1ccc(/N=N/c2cccc(Cc3c[nH]cn3)c2)cc1 [compound 78, 78 trans]",1910
2,"c1ccc(/N=N\c2cccc(Cc3c[nH]cn3)c2)cc1 [compound 65, cis-65 (PSS cis)]",32.4
3,"Cc1ccccc1/N=N/c1cccc(Cc2c[nH]cn2)c1 [compound 76, 76 trans]",19.1
4,"c1ccc(/N=N/c2cccc(Cc3c[nH]cn3)c2)cc1 [compound 65, trans-65]",3.8
5,"Fc1cccc(F)c1/N=N\c1cccc(Cc2c[nH]cn2)c1 [compound 69, 69 cis (PSS cis)]",55
6,"Fc1ccc(/N=N\c2cccc(Cc3c[nH]cn3)c2)cc1 [compound 68, 68 cis (PSS cis)]",309
7,"Cc1ccccc1/N=N\c1cccc(Cc2c[nH]cn2)c1 [compound 76, 76 cis (PSS cis)]",398
8,"Cc1cc(Cc2c[nH]cn2)cc(/N=N\c2ccccc2)c1 [compound 74, 74 cis (PSS cis)]",7410
9,"Clc1ccccc1/N=N/c1cccc(Cc2c[nH]cn2)c1 [compound 70, 70 trans]",13.8
10,"Clc1ccc(/N=N/c2cccc(Cc3c[nH]cn3)c2)cc1 [compound 71, 71 trans]",174
11,"Fc1cccc(/N=N/c2cccc(Cc3c[nH]cn3)c2)c1 [compound 67, 67 trans]",4.47
12,"Cc1c(Cc2c[nH]cn2)cccc1/N=N\c1ccccc1 [compound 72, 72 cis (PSS cis)]",3550
13,"Cc1cccc(/N=N/c2cccc(Cc3c[nH]cn3)c2)c1 [compound 77, 77 trans]",40.7
14,"Cc1c(Cc2c[nH]cn2)cccc1/N=N/c1ccccc1 [compound 72, 72 trans]",2690
15,"Cc1ccc(/N=N\c2cccc(Cc3c[nH]cn3)c2)cc1 [compound 78, 78 cis (PSS cis)]",1950
16,"Cc1cc(Cc2c[nH]cn2)cc(/N=N/c2ccccc2)c1 [compound 74, 74 trans]",1780
17,"Fc1ccc(/N=N/c2cccc(Cc3c[nH]cn3)c2)cc1 [compound 68, 68 trans]",20.4
18,"Fc1cccc(F)c1/N=N/c1cccc(Cc2c[nH]cn2)c1 [compound 69, 69 trans]",10
19,"Fc1ccccc1/N=N\c1cccc(Cc2c[nH]cn2)c1 [compound 66, 66 cis (PSS cis)]",81.3
20,"Fc1cccc(/N=N\c2cccc(Cc3c[nH]cn3)c2)c1 [compound 67, 67 cis (PSS cis)]",38
21,"Cc1cccc(/N=N\c2cccc(Cc3c[nH]cn3)c2)c1 [compound 77, 77 cis (PSS cis)]",347
22,"Fc1ccccc1/N=N/c1cccc(Cc2c[nH]cn2)c1 [compound 66, 66 trans]",5.25
23,"Clc1ccc(/N=N\c2cccc(Cc3c[nH]cn3)c2)cc1 [compound 71, 71 cis (PSS cis)]",1050
24,"Clc1ccccc1/N=N\c1cccc(Cc2c[nH]cn2)c1 [compound 70, 70 cis (PSS cis)]",141

# Same assay, conditions: kept in dark, >99 % trans
row,Structure (SMILES),pK i trans ± SEM
1,"Fc1ccc(Cc2c[nH]cn2)cc1/N=N/c1ccccc1 [compound 80, 80 trans]",8.39±0.06
2,"Cc1ccc(/N=N/c2ccccc2)cc1Cc1c[nH]cn1 [compound 73, 73 trans]",6.90±0.06
3,"Fc1ccc(/N=N/c2ccccc2)cc1Cc1c[nH]cn1 [compound 79, 79 trans]",7.81±0.07
4,"Cc1ccc(Cc2c[nH]cn2)cc1/N=N/c1ccccc1 [compound 75, 75 trans]",7.15±0.03

# Target: rat H3R (Rattus norvegicus, UniProt Q9QYN8)
# Sequence (Q9QYN8 whole entry): as the sequence (P58406 whole entry) above, with A15T, T286A, G290A, H387R, V389I counted along it
# Assay: receptor binding
# Details: PSS cis
row,Structure (SMILES),pKi
1,"c1ccc(/N=N\c2cccc(Cc3c[nH]cn3)c2)cc1 [compound 65, cis-65 (PSS cis)]",high nM (trans) to low μM (PSS cis) binding affinities for both mouse and rat

# Same assay, conditions: trans
row,Structure (SMILES),pKi
1,"c1ccc(/N=N/c2cccc(Cc3c[nH]cn3)c2)cc1 [compound 65, trans-65]",high nM (trans) to low μM (PSS cis) binding affinities for both mouse and rat
